Test results published in the supplement of paper PMC8882468.

Legend:
Test in all cases: CTG-3D luminescence at 96 h relative to day-0 seeding control (ratio to day 0); higher = more growth / less cytotoxicity; PDxO 3D drug screen (set 2), 96 h, CTG-3D normalised to day-0 seeding control.
[1] = test system: HCI-001 (organoid from a triple-negative breast cancer xenograft)
[2] = test system: HCI-025 (organoid from a breast cancer xenograft)
[3] = test system: HCI-002 (organoid from a triple-negative breast cancer xenograft)
[4] = test system: HCI-015 (organoid from a triple-negative breast cancer xenograft)
[5] = test system: HCI-011.E2 (organoid from an ER-positive breast cancer xenograft)
[6] = test system: HCI-024 (organoid from a breast cancer xenograft)

Cc1c(CN2CCN(C(=O)[C@H](C)O)CC2)sc2c(N3CCOCC3)nc(-c3cnc(N)nc3)nc12 [apitolisib]
CTG-3D luminescence at 96 h
Conditions | 12.5 pM | 0.00025 µM | 0.005 µM | 0.1 µM | 1 µM | 10 µM | 100 µM | 625 fM
[1], days in culture: 365 | 2.58 | 2.24 | 2.1 | 1.76 | 0.879 | 0.659 | 0.623 | 1.4
[1], days in culture: 397 | 1.85 | 1.88 | 1.62 | 1.89 | 0.725 | 0.643 | 0.29 | 1.38
[1], days in culture: 401 | 1.46 | 1.75 | 1.41 | 1.57 | 0.609 | 0.676 | 0.517 | 1.65
[2], days in culture: 175 | 1.49 | 1.72 | 1.53 | 1.89 | 0.73 | 0.467 | 0.419 | 1.16
[2], days in culture: 189 | 1.77 | 1.49 | 1.66 | 1.41 | 0.518 | 0.179 | 0.121 | 2.67
[2], days in culture: 212 | 2.2 | 3.51 | 2.34 | 0.777 | 0.534 | 0.218 | 0.139 | 0.788
[2], days in culture: 224 | 2.45 | 2.02 | 2.09 | 1.35 | 0.679 | 0.351 | 0.267 | 2
[3], days in culture: 127 | 2.45 | 2.82 | 2.96 | 2.58 | 1.05 | 0.803 | 0.805 | 2.74
[3], days in culture: 155 | 5.36 | 5.25 | 5.97 | 4.01 | 1.36 | 0.808 | 0.848 | 4.72
[3], days in culture: 168 | 3.42 | 3.42 | 4.23 | 2.67 | 1.16 | 0.818 | 0.75 | 3.69
[4], days in culture: 333 | 2.19 | 1.99 | 1.89 | 1.33 | 0.434 | 0.445 | 0.394 | 1.94
[4], days in culture: 355 | 2.9 | 4.1 | 1.01 | 2.04 | 0.803 | 0.711 | 0.182 | 1.38
[4], days in culture: 369 | 2.06 | 1.76 | 2.05 | 1.61 | 0.917 | 0.622 | 0.691 | 1.69
[5], days in culture: 74 | 2.37 | 2.08 | 1.85 | 1.24 | 0.177 | 0.0892 | 0.218 | 2.23
[6], days in culture: 202 | 1.67 | 1.17 | 1 | 1.17 | 0.494 | 1.03 | 0.293 | 1.42
[6], days in culture: 231 | 1.04 | 1.28 | 1.23 | 1.04 | 0.577 | 0.527 | 0.227 | 1.38
[6], days in culture: 254 | 1.36 | 0.995 | 0.856 | 2.4 | 0.795 | 0.608 | 0.25 | 1.94

[5]
Conditions | CTG-3D luminescence at 96 h
12.5 pM | 1.62
0.00025 µM | 1.71
0.005 µM | 1.3004
0.1 µM | 0.978
1 µM | 0.232
10 µM | 0.17
100 µM | 0.377
625 fM | 1.89

CC(=O)c1c(C)c2cnc(Nc3ccc(N4CCNCC4)cn3)nc2n(C2CCCC2)c1=O [palbociclib]
CTG-3D luminescence at 96 h
Conditions | 12.5 pM | 0.00025 µM | 0.005 µM | 0.1 µM | 1 µM | 10 µM | 100 µM | 625 fM
[1], days in culture: 365 | 2.73 | 2.25 | 2.7 | 2.64 | 2.4 | 1.89 | 1.62 | 2.11
[1], days in culture: 397 | 1.74 | 2.12 | 2.31 | 2.47 | 2.46 | 2 | 1.24 | 1.26
[1], days in culture: 401 | 1.54 | 2.13 | 1.58 | 1.85 | 1.33 | 1.58 | 0.962 | 1.63
[2], days in culture: 175 | 1.84 | 2.51 | 1.75 | 1.97 | 2.37 | 2.28 | 1.24 | 1.97
[2], days in culture: 189 | 2.77 | 1.41 | 2.23 | 1.9 | 1.78 | 1.42 | 0.673 | 3.4
[2], days in culture: 212 | 2.24 | 1.43 | 1.94 | 1.29 | 0.809 | 2.39 | 2.52 | 2.45
[2], days in culture: 224 | 1.84 | 1.83 | 1.88 | 1.26 | 2 | 2.17 | 1.17 | 1.33
[3], days in culture: 127 | 2.7 | 3.03 | 2.72 | 3.1 | 2.26 | 2.38 | 2.33 | 2.77
[3], days in culture: 155 | 4.87 | 4.92 | 5.53 | 4.73 | 3.5 | 3.42 | 2.36 | 5.36
[3], days in culture: 168 | 3.15 | 3.17 | 3.77 | 2.95 | 3.02 | 2.23 | 1.63 | 4.09
[4], days in culture: 333 | 1.88 | 1.26 | 1.44 | 0.877 | 0.941 | 0.44 | 0.369 | 1.89
[4], days in culture: 355 | 3.11 | 2.44 | 1.74 | 3.47 | 0.976 | 1.99 | 0.775 | 1.74
[4], days in culture: 369 | 2.19 | 1.75 | 2.45 | 1.9 | 1.82 | 1.07 | 0.742 | 1.94
[5], days in culture: 74 | 2.34 | 2.11 | 2.43 | 2.43 | 1.74 | 2.51 | 1.52 | 2.09
[6], days in culture: 202 | 0.831 | 0.703 | 1.17 | 1.26 | 1.7 | 1.1 | 0.337 | 1.22
[6], days in culture: 231 | 0.919 | 0.896 | 1.34 | 0.956 | 1.09 | 0.74 | 0.498 | 1.21
[6], days in culture: 254 | 1.24 | 1.36 | 0.864 | 0.919 | 1.17 | 1.25 | 0.688 | 2.68

[5]
Conditions | CTG-3D luminescence at 96 h
12.5 pM | 1.41
0.00025 µM | 1.8
0.005 µM | 1.29
0.1 µM | 1.53
1 µM | 1.49
10 µM | 1.92
100 µM | 1.44
625 fM | 1.86

CS(=O)(=O)CCNCc1ccc(-c2ccc3ncnc(Nc4ccc(OCc5cccc(F)c5)c(Cl)c4)c3c2)o1 [lapatinib]
CTG-3D luminescence at 96 h
Conditions | 12.5 pM | 0.00025 µM | 0.005 µM | 0.1 µM | 1 µM | 10 µM | 100 µM | 625 fM
[1], days in culture: 365 | 2.34 | 2.26 | 2.24 | 2.56 | 1.9 | 1.3 | 0.109 | 1.46
[1], days in culture: 397 | 1.64 | 2.11 | 2.14 | 1.37 | 1.64 | 1.63 | 0.127 | 1.29
[1], days in culture: 401 | 1.46 | 1.83 | 1.73 | 1.59 | 1.25 | 1.44 | 0.0402 | 1.52
[2], days in culture: 175 | 1.92 | 2.05 | 1.45 | 2.22 | 2.73 | 1.66 | 0.00817 | 1.88
[2], days in culture: 189 | 1.99 | 2.19 | 1.58 | 3.08 | 1.26 | 0.872 | 0.00432 | 2.46
[2], days in culture: 212 | 1.59 | 3.22 | 4.13 | 3.86 | 1.17 | 0.527 | 0.00417 | 1.69
[2], days in culture: 224 | 2.14 | 1.93 | 1.8 | 1.82 | 1.84 | 0.896 | 0.000609 | 1.83
[3], days in culture: 127 | 2.38 | 2.9 | 2.7 | 3.41 | 2.39 | 1.07 | 0.00596 | 2.75
[3], days in culture: 155 | 5.69 | 4.91 | 5.49 | 7.04 | 4.12 | 0.801 | -0.00284 | 4.59
[3], days in culture: 168 | 3.63 | 3.77 | 3.93 | 3.54 | 3.53 | 1.01 | -0.0013 | 3.8
[4], days in culture: 333 | 1.35 | 1.46 | 1.34 | 1.08 | 0.661 | 0.251 | 0.00814 | 2.63
[4], days in culture: 355 | 3.61 | 3.24 | 1.08 | 1.64 | 1.45 | 0.567 | 0.0071 | 2.45
[4], days in culture: 369 | 2.34 | 1.5 | 2.2 | 1.6 | 2.32 | 0.511 | 0.0242 | 1.79
[5], days in culture: 74 | 2.75 | 2.14 | 2.07 | 2.34 | 1.66 | 0.607 | -0.00505 | 2.76
[6], days in culture: 202 | 1.02 | 1.45 | 1.36 | 0.838 | 0.917 | 0.832 | 0.0105 | 1.54
[6], days in culture: 231 | 0.876 | 1.18 | 1.07 | 1.57 | 1.44 | 0.512 | 0.00851 | 1.39
[6], days in culture: 254 | 1.47 | 0.96 | 1.64 | 2.25 | 1.02 | 0.584 | 0.0095 | 1.76

[5]
Conditions | CTG-3D luminescence at 96 h
12.5 pM | 1.6
0.00025 µM | 1.63
0.005 µM | 1.26
0.1 µM | 1.72
1 µM | 1.57
10 µM | 0.982
100 µM | 0.0218
625 fM | 2.23
